Results taken from patent USRE40300E1, “Carbon dioxide enhancement of inhalation therapy” (priority 1999, dated 2008).
Where two headings read alike, the source gives them in different places.

Assays:
[1] = Tissue distribution and pharmacokinetics of PTX after PTX-DLPC aerosol generated with normal or 5% CO2-enriched air; type: in vivo, mice; conditions: for Cmax: lung, inhaled, 10 mg of PTX/ml suspension (nebulized, 30 min aerosol exposure), 30 min, read-out: Pulmonary paclitaxel Cmax
B16-F10 lung metastasis = test: Inhibition of B16-F10 lung metastasis by aerosol delivery; type: in vivo, C57BL/6 mice; conditions: 5% CO2 alone, data not shown
Method: B16-F10 melanoma cell line was obtained from Division of Cancer treatment and Diagnosis Center (DCTDC, NCE, Frederick, Md.) and cultivated in DMEM supplemented with 10% fetal calf serum. […] Twenty-five thousand B16-F10 cells in 200 μl of media are injected per mice via the tail vein of C57BL/6 mice. Lung metastases are visually detected within 2 weeks after inoculation of cells. The cells were used at passages 3-12.
C57BL/6 mice were injected intravenously with 25,000 B16-F10 cells on day 0. The mice were treated with polyethylenimine-p53 aerosol complexes generated using 5% CO2 twice a week starting the day after inoculation of the cancer cells into the mice (on days 1, 4, 8, 11, 15, 18, and 22) with the last treatment on day 22 postinjection (a total of seven aerosol exposures). Control groups included untreated mice, mice treated with polyethyleneimine or with polyethylenimine-Luc aerosol complexes. The control animals start dying around day 24 post tumor cell inoculation, which is when the therapy was stopped and the experiment terminated. The dosage of treatment was 2 mg plasmid/10 ml of aerosolized solution at a polyethyleneimine:DNA (N:P) ratio of 10:1. This is the total amount of DNA aerosolized to the mice. […]

[2] = cited from earlier work; for increase in frequency of breathing / increase in minute volumes / increase in tidal volumes: normal humans
[3] = cited from earlier work
[4] = Tissue distribution and pharmacokinetics of CPT after CPT-DLPC aerosol generated with normal or 5% CO2-enriched air; conditions: 5% CO2-in-air versus normal air
Method: Briefly, an AERO-MIST jet nebulizer (CIS-USA, Bedford, Mass.) is used to generate aerosol particles at the air flow rate of 10 L/min. Mice are placed in sealed plastic cage (23×18×13 cm) and exposed to aerosol for 30 min. The aerosol is generated with normal or 5% CO2-enriched air obtained by mixing normal air and CO2 with a blender (Bird 3m, Palm Springs, Calif.) and the CO2 concentrations are calibrated with a Fluid Fyrite (Bacharach Inc., Pittsburgh, Pa.). At each time point 3 mice are removed from the cage and sacrificed by exposure to Isoflurane, USP (Abbott Laboratories, Chicago, Ill.) and exsanguination. Organs are resected, weighed and kept frozen at −70° C. until extraction.
Briefly, after thawing tissue, 20 μg of 9NC in 20 μl is added in organs as an internal standard to determine the extraction efficiency. The samples are cut in small pieces and 1 ml of 0.1% aqueous acetic acid solution, pH 3.2 is added to each sample. After the homogenization in a mini-beadbeater, the homogenates are centrifuged at 1,000×g for 5 min. The supernatant fractions are re-extracted with 8 ml of methylene chloride. The organic fraction is separated and dried under air at room temperature. […]
Chromatograms for camptothecin are monitored on Waters 470 scanning fluorescent detector (λex=360 nm, λem=455 nm) while 9NC is detected using Waters 440 UV absorbance detector monitoring at 254 nm. […]

[5] = 5% carbon dioxide for two minutes
[6] = 7.5% carbon dioxide for two minutes
[7] = inhalation of 5% carbon dioxide

CC(=O)O[C@H]1C(=O)[C@@]2(C)[C@H]([C@H](OC(=O)c3ccccc3)[C@]3(O)C[C@H](OC(=O)[C@H](O)[C@@H](NC(=O)c4ccccc4)c4ccccc4)C(C)=C1C3(C)C)[C@]1(OC(C)=O)CO[C@@H]1C[C@@H]2O [paclitaxel]
area under the lung-concentration-time curve ([1]; 5% CO2): 33.7 µg·h/g
T1/2α in the lungs ([1]; 5% CO2-air): 0.7 h
T1/2β in the lungs ([1]; 5% CO2-air): 5.1 h
AUC over a 3 hr period, fifth value of list (blood) ([1]; 5% CO2-air, trapezoidal rule): 0.13±0.10 μg PTS-hr/g of tissue
AUC over a 3 hr period, fourth value of list (kidney) ([1]; 5% CO2-air, trapezoidal rule): 2.8±1.5 μg PTS-hr/g of tissue
AUC over a 3 hr period, liver ([1]; 5% CO2-air, trapezoidal rule): 9.8±1.9 μg PTS-hr/g of tissue
AUC over a 3 hr period, lungs ([1]; 5% CO2-air, trapezoidal rule): 34±2 μg PTS-hr/g of tissue
AUC over a 3 hr period, sixth value of list (brain) ([1]; 5% CO2-air, trapezoidal rule): 0.23±0.2 μg PTS-hr/g of tissue
average pulmonary deposition increase ([1]; 5% CO2-in-air versus normal air): 2-4 fold
Cmax ratio 5% CO2-enriched air versus ambient air ([1]; lungs): 4.2 fold
lung AUC ratio 5% CO2 versus normal air ([1]; mouse, in vivo): 5.7 fold
Cmax ([1]; mouse, 5% CO2-enriched air): 23100 ± 4300 ng/g
Cmax ([1]; mouse, ambient air): 5500 ± 200 ng/g
T1/2α in the lungs ([1]; normal air): 0.3 h
T1/2β in the lungs ([1]; normal air): 1.6 h
area under the lung-concentration-time curve ([1]; normal air): 5.9 µg·h/g
levels of paclitaxel in liver, spleen, kidney and blood ([1]; normal air for aerosolization): below detectable levels

O=C=O [carbon dioxide]
effect on the growth of tumors compared to untreated mice (B16-F10 lung metastasis): no effect
increase in frequency of breathing [2, 5]: 6.7%
increase in minute volumes [2, 5]: 34%
increase in tidal volumes [2, 5]: 31%
increase in frequency of breathing [2, 6]: 19%
increase in minute volumes [2, 6]: 75%
increase in tidal volumes [2, 6]: 52%
increase in the minute volume [2, 7]: 3 fold
increase in tidal volume ([3]; 5% CO2-enriched air, mammalians, plethysmograph studies): 170-180%
increase in tidal volume [3, 7]: ≤ 192%

CC[C@@]1(O)C(=O)OCc2c1cc1n(c2=O)Cc2cc3ccccc3nc2-1 [camptothecin]
average pulmonary deposition increase [4]: 2-4 fold
